Assay results taken from ChEMBL document CHEMBL4813943, “Hybrids of Small-Molecule CD4 Mimics with Polyethylene Glycol Units as HIV Entry Inhibitors” (J Med Chem, 2021).

What was measured:
[1] = Cytotoxicity against human TZM-bl cells assessed as reduction in cell viability by Cell Titer-Glo assay; assay type: cell-based
[2] = target: Envelope glycoprotein gp160 (Human immunodeficiency virus 1) (UniProt Q6QLK5); assay: Inhibition of HIV1 KP-5mvcR gp120 interaction with CD4 in human TZM-bl cells assessed as decrease in viral entry at 0.1 uM by […] assay relative to control; assay type: cell-based
Envelope glycoprotein gp160 (Human immunodeficiency virus 1), sequence (Q6QLK5 1-814): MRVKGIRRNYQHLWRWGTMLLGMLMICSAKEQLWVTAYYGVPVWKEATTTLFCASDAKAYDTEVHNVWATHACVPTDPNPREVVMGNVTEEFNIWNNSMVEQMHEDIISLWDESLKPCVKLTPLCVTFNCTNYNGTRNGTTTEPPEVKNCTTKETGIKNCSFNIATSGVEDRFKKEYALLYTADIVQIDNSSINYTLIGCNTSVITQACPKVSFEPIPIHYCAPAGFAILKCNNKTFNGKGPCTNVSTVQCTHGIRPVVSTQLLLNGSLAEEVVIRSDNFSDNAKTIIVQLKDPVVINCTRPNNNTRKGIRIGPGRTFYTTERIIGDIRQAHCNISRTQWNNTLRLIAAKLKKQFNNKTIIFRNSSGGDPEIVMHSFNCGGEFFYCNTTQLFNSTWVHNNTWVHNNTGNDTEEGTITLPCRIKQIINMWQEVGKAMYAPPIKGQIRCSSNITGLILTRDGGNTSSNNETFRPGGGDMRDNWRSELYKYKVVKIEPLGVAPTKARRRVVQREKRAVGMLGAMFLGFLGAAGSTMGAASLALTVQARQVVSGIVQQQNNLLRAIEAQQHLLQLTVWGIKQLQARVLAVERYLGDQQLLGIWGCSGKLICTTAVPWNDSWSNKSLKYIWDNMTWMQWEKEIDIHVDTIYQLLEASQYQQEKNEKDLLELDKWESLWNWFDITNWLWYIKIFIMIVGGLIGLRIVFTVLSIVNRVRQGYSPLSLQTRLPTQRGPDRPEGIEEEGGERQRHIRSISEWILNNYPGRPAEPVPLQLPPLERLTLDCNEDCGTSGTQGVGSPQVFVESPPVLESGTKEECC

[3] = Half life in rhesus monkey at 18 mg, IM measured upto 48.1 hrs by HPLC analysis; assay type: ADME, Macaca mulatta; details: in vivo
[4] = Half life in rhesus monkey at 9 mg, IM measured upto 48.1 hrs by HPLC analysis; assay type: ADME, Macaca mulatta; details: in vivo
[5] = Toxicity in rhesus monkey assessed as effect on body motion at 33.2 mg, iv measured within 25 mins; assay type: organism-based, Macaca mulatta; details: in vivo
[6] = Cmax in rhesus monkey at 36 mg, IM measured upto 48.1 hrs by HPLC analysis; assay type: ADME, Macaca mulatta; parameters: route intramuscular, dose 36 mg, time <=48.1; details: in vivo
[7] = Volume of distribution in rhesus monkey at 36 mg, IM measured upto 48.1 hrs by HPLC analysis; assay type: ADME, Macaca mulatta; details: in vivo
[8] = Half life in rhesus monkey at 33.2 mg, iv measured upto 72 hrs by HPLC analysis; assay type: ADME, organism-based, Macaca mulatta; details: in vivo
[9] = Volume of distribution in rhesus monkey at 9 mg, IM measured upto 48.1 hrs by HPLC analysis; assay type: ADME, Macaca mulatta; details: in vivo
[10] = Cmax in rhesus monkey at 33.2 mg, iv measured upto 72 hrs by HPLC analysis; assay type: ADME, organism-based, Macaca mulatta; parameters: route intravenous, dose 33.2 mg, time <=72; details: in vivo
[11] = Volume of distribution in rhesus monkey at 18 mg, IM measured upto 48.1 hrs by HPLC analysis; assay type: ADME, Macaca mulatta; details: in vivo
[12] = Cmax in rhesus monkey at 9 mg, IM measured upto 48.1 hrs by HPLC analysis; assay type: ADME, Macaca mulatta; parameters: route intramuscular, dose 9 mg, time <=48.1; details: in vivo
[13] = Toxicity in rhesus monkey assessed as increase in pulse rate at 33.2 mg, iv measured within 25 mins; assay type: organism-based, Macaca mulatta; details: in vivo
[14] = Volume of distribution in rhesus monkey at 33.2 mg, IV measured upto 72 hrs by HPLC analysis; assay type: ADME, Macaca mulatta; details: in vivo
[15] = Cmax in rhesus monkey at 18 mg, IM measured upto 48.1 hrs by HPLC analysis; assay type: ADME, Macaca mulatta; parameters: route intramuscular, dose 18 mg, time <=48.1; details: in vivo
[16] = Half life in rhesus monkey at 36 mg, IM measured upto 48.1 hrs by HPLC analysis; assay type: ADME, Macaca mulatta; details: in vivo
[17] = Acute toxicity in iv dosed rhesus monkey assessed as maximum tolerated dose; assay type: organism-based, Macaca mulatta; details: in vivo
[18] = Initial drug concentration in rhesus monkey blood at 24 mg/kg, iv measured upto 6 hrs by HPLC analysis; assay type: ADME, organism-based, Macaca mulatta
[19] = Acute toxicity in rhesus monkey assessed as effect on blood oxygen levels at 24 mg/kg, iv measured after 24 hrs; assay type: organism-based, Macaca mulatta; details: in vivo
[20] = Acute toxicity in rhesus monkey assessed as animal survival at 24 mg/kg, iv measured after 24 hrs; assay type: organism-based, Macaca mulatta; details: in vivo
[21] = Half life in rhesus monkey at 24 mg/kg, iv measured upto 6 hrs by HPLC analysis; assay type: ADME, organism-based, Macaca mulatta; details: in vivo
[22] = Acute toxicity in rhesus monkey assessed as decrease in blood oxygen level at 24 mg/kg, iv measured within 15 mins; assay type: organism-based, Macaca mulatta; details: in vivo, 0.25 h
[23] = Acute toxicity in rhesus monkey assessed as effect on pulse rate at 24 mg/kg, iv measured after 24 hrs; assay type: organism-based, Macaca mulatta; details: in vivo
[24] = Volume of distribution in rhesus monkey at 24 mg/kg, iv measured upto 6 hrs by HPLC analysis; assay type: ADME, organism-based, Macaca mulatta; details: in vivo
[25] = Acute toxicity in rhesus monkey assessed as increase in pulse rate at 24 mg/kg, iv measured within 15 mins; assay type: organism-based, Macaca mulatta; details: in vivo, 0.25 h
[26] = Half life of the compound by HPLC analysis; assay type: physicochemical
[27] = Stability of the compound assessed as drug degradation at 10 umol measured after 1 mins by HPLC analysis; assay type: physicochemical; details: at 10 µmol, read-out: Drug degradation
[28] = Stability of the compound assessed as drug degradation at 10 umol measured after 25 mins by HPLC analysis; assay type: physicochemical; details: at 10 µmol, read-out: Drug degradation
[29] = Stability of the compound assessed as drug degradation at 10 umol measured after 5 mins by HPLC analysis; assay type: physicochemical; details: at 10 µmol, read-out: Drug degradation
[30] = test system: Simian immunodeficiency virus; assay: Potentiation of KD-247-induced viral neutralizing activity against SHIV KS2661 infected in human TZM-bl cells assessed as fold reduction in KD-247 IC50 for viral neutralization at 10 uM measured after 48 hrs by luciferase assay relative to KD-247; assay type: functional

Which results are given for `COCCOCCOCCOCCOCCOCCOCCOCCOCCOCCOCCOCCOCCOCCOCCOCCOCCOCCOCCOCCOCCOCCOCCOCCNC(=O)CCC(=O)N[C@@H](CCCNC(=N)N)C(=O)NCCN1CCC(NC(=O)C(=O)Nc2ccc(Cl)cc2)CC12CCCCC2` (some centres undefined)?
CC50 [1]: 40 µM; inhibition [2]: 65%

For `COCCOCCOCCOCCOCCOCCOCCOCCOCCOCCOCCOCCNC(=O)CCC(=O)N[C@@H](CCCNC(=N)N)C(=O)NCCN1CCC(NC(=O)C(=O)Nc2ccc(Cl)cc2)CC12CCCCC2` (some centres undefined) [listing 1 of 2 here], which inhibition [2] is on record?
The inhibition was 50%.

With `N=C(N)NCCCCC(=O)NCCN1CCC(NC(=O)C(=O)Nc2ccc(Cl)cc2)CC12CCCCC2` (centres undefined) as the molecule, how does the CC50 [1] read?
Its CC50 is 65 µM.

For `N=C(N)NCCCCCCCCCCC(=O)NCCN1CCC(NC(=O)C(=O)Nc2ccc(Cl)cc2)CC12CCCCC2` (centres undefined), which CC50 [1] is on record?
Its CC50 is 1.1 µM.

For `CC1(C)CC(NC(=O)C(=O)Nc2ccc(Cl)cc2)CC(C)(C)N1`, which CC50 [1] is on record?
Its CC50 is 132 µM.

Which half-life [3] does the source give for `COCCOCCOCCOCCOCCOCCOCCOCCOCCOCCOCCOCCNC(=O)CCC(=O)N[C@@H](CCCNC(=N)N)C(=O)NCCN1CCC(NC(=O)C(=O)Nc2ccc(Cl)cc2)CC12CCCCC2.O=C(O)C(F)(F)F.O=C(O)C(F)(F)F` (some centres undefined) here?
Its half-life is 58.9 min.

What about the half-life [4] of the same molecule?
Its half-life is 47.6 min.

And the Activity [5]?
The Activity was “Toxic”.

And the Cmax [6]?
The Cmax was 128 µM.

What about the Vd [7] of the same molecule?
Its Vd is 200 mL.

And the t1/2 [8]?
The t1/2 was 107.4 min.

And the Vd [9]?
Its Vd is 114 mL.

And the Cmax [10]?
The Cmax was 39.5 µM.

And the Vd [11]?
The Vd was 215 mL.

What about the Cmax [12] of the same molecule?
Its Cmax is 56.4 µM.

And the Activity [13]?
Its Activity is “Toxic”.

What about the Vd [14] of the same molecule?
The Vd was 592 mL.

And the Cmax [15]?
Its Cmax is 59.4 µM.

What about the half-life [16] of the same molecule?
Its half-life is 86.4 min.

And the MTD [17]?
Its MTD is 3.78 mg/kg.

Which results are given for `N=C(N)NCCCCC(=O)NCCN1CCC(NC(=O)C(=O)Nc2ccc(Cl)cc2)CC12CCCCC2.O=C(O)C(F)(F)F.O=C(O)C(F)(F)F` (centres undefined)?
C0 at 6 h [18]: 23.3 µM; Activity [19]: Non-Toxic; Activity [20]: Non-Toxic; half-life [21]: 31 min; Activity [22]: Toxic; Activity [23]: Non-Toxic; MTD [17]: 24 mg/kg; Vd [24]: 10.8 L; Activity [25]: Toxic

Which CC50 [1] does the source give for `COCCOCCOCCOCCOCCNC(=O)CCC(=O)OC(CCCN)C(=O)NCCN1CCC(NC(=O)C(=O)Nc2ccc(Cl)cc2)CC12CCCCC2` (centres undefined) here?
The CC50 was 81 µM.

With `N=C(N)NCCCCCCCCCCC(=O)NCCCC[C@H](NC(=N)N)C(=O)NCCN1CCC(NC(=O)C(=O)Nc2ccc(Cl)cc2)CC12CCCCC2` (some centres undefined) as the molecule, how does the CC50 [1] read?
Its CC50 is 15 µM.

Which CC50 [1] does the source give for `COCCOCCOCCOCCOCCNC(=O)CCC(=O)OC(CCCNC(=N)N)C(=O)NCCN1CCC(NC(=O)C(=O)Nc2ccc(Cl)cc2)CC12CCCCC2` (centres undefined) [listing 1 of 2 here] here?
The CC50 was 109 µM.

What about the half-life [26] of the same molecule?
The half-life was 126 min.

With `CCCCCCCCCCCCCCCCNC(=O)CCC(=O)OC(CCCNS(=O)(=O)c1ccc([N+](=O)[O-])cc1)C(=O)NCCN1CCC(NC(=O)C(=O)Nc2ccc(Cl)cc2)CC12CCCCC2` (centres undefined) as the molecule, how does the CC50 [1] read?
Its CC50 is greater than 300 µM.

Which CC50 [1] does the source give for `COCCOCCOCCOCCOCCNC(=O)CCC(=O)N[C@@H](CCCNC(=N)N)C(=O)NCCN1CCC(NC(=O)C(=O)Nc2ccc(Cl)cc2)CC12CCCCC2` (some centres undefined) here?
Its CC50 is greater than 100 µM.

Which CC50 [1] does the source give for `N=C(N)NCCCC[C@H](NC(=N)N)C(=O)NCCN1CCC(NC(=O)C(=O)Nc2ccc(Cl)cc2)CC12CCCCC2` (some centres undefined) here?
The CC50 was 46 µM.

Which CC50 [1] does the source give for `CCCCCCCCCCCCCCCCNC(=O)CCC(=O)OC(CCCNC(=N)N)C(=O)NCCN1CCC(NC(=O)C(=O)Nc2ccc(Cl)cc2)CC12CCCCC2` (centres undefined) here?
Its CC50 is 17 µM.

Which CC50 [1] does the source give for `N=C(N)NCCCCCCCC(=O)NCCN1CCC(NC(=O)C(=O)Nc2ccc(Cl)cc2)CC12CCCCC2` (centres undefined) here?
The CC50 was greater than 300 µM.

For `N=C(N)NCCCCC(=O)NCCCC[C@H](NC(=N)N)C(=O)NCCN1CCC(NC(=O)C(=O)Nc2ccc(Cl)cc2)CC12CCCCC2` (some centres undefined), which CC50 [1] is on record?
Its CC50 is 62 µM.

Which CC50 [1] does the source give for `N=C(N)NCCCCCCCC(=O)NCCCC[C@H](NC(=N)N)C(=O)NCCN1CCC(NC(=O)C(=O)Nc2ccc(Cl)cc2)CC12CCCCC2` (some centres undefined) here?
The CC50 was 44 µM.

With `CCCCCCCCCCCCCCCCNC(=O)CCC(=O)OC(CCCN)C(=O)NCCN1CCC(NC(=O)C(=O)Nc2ccc(Cl)cc2)CC12CCCCC2` (centres undefined) as the molecule, how does the CC50 [1] read?
The CC50 was 5.7 µM.

For `N=C(N)NCC(=O)NCCCC[C@H](NC(=N)N)C(=O)NCCN1CCC(NC(=O)C(=O)Nc2ccc(Cl)cc2)CC12CCCCC2` (some centres undefined), which CC50 [1] is on record?
The CC50 was 42 µM.

For `COCCOCCOCCOCCOCCNC(=O)CCC(=O)OC(CCCNC(=N)N)C(=O)NCCN1CCC(NC(=O)C(=O)Nc2ccc(Cl)cc2)CC12CCCCC2` (centres undefined) [listing 2 of 2 here], which degraded at 1 min, 10 umol [27] is on record?
The degraded at 1 min, 10 umol was 0%.

What about the degraded at 25 min, 10 umol [28] of the same molecule?
Its degraded at 25 min, 10 umol is 20%.

And the degraded at 5 min, 10 umol [29]?
Its degraded at 5 min, 10 umol is 0%.

With `COCCOCCOCCOCCOCCNC(=O)CCC(=O)OC(CCCNS(=O)(=O)c1ccc([N+](=O)[O-])cc1)C(=O)NCCN1CCC(NC(=O)C(=O)Nc2ccc(Cl)cc2)CC12CCCCC2` (centres undefined) as the molecule, how does the CC50 [1] read?
The CC50 was 174 µM.

For `COCCOCCOCCOCCOCCOCCOCCOCCOCCOCCOCCOCCNC(=O)CCC(=O)N[C@@H](CCCNC(=N)N)C(=O)NCCN1CCC(NC(=O)C(=O)Nc2ccc(Cl)cc2)CC12CCCCC2` (some centres undefined) [listing 2 of 2 here], which “fold change (FC)” value [30] is on record?
The value was 20.

And the CC50 [1]?
The CC50 was greater than 100 µM.
